Results on 51 molecules are retold here after ChEMBL document CHEMBL1201862, “PubChem BioAssay data set” (2004).

Common to all, as to test: growth of human tumour cells (NCI), 48 h
For experiment [1], the system named is Hs-578T.
Experiment [2] concerns KM-20L2.
For experiment [3], the system named is XF498.
In experiment [4] the test system is LXFL 529.
Experiment [5] has as its system M19-MEL.
Experiment [6] relates to DMS-114.
Experiment [7] concerns SNB-78.

Each structure is given as a SMILES string.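 Five concentrations, 48 hours, 96-well plates. GI50 marks 50% less growth.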 Calls of active or inactive are those of the source. No stated cut-off is given here; in the data, active = GI50 up to about 1.1 µM and inactive = higher. Where only a bound is given, the exact number is not on record here.

Consider `CC(=O)Nc1ccc2c(c1)/C(=N/c1ccc(C(=O)O)cc1)c1ccccc1-2`, for which the GI50 in experiment [1] is 92.7 µM (inactive). As for `CC(C)(C)c1ccc2c(c1)C(=O)c1ccccc1C2=O`, the GI50 in experiment [1] was 90.2 µM (inactive). On to `O=S(=O)(Cc1cnc(O)nc1O)Cc1cnc(O)nc1O`, for which the GI50 in experiment [1] is > 100 µM (inactive).

Regarding `C=C1C(=O)OC2C1CCC(C)C1(O)C=CC(=O)C21C` (stereo not given), the GI50 in experiment [1] was > 10 µM (inactive). Regarding `CC1(CCOCc2ccccc2)NC(=O)NC1=O` (stereo not given), the GI50 in experiment [1] was > 100 µM (inactive). With `COc1cc(/C=N/N=C2NCCCN2)ccc1O`, the GI50 in experiment [1] is > 100 µM (inactive). For the molecule `O=C1/C(=C/c2ccc(OC(=O)c3ccccc3)cc2)CCC/C1=C\c1ccc(OC(=O)c2ccccc2)cc1`, in experiment [1], the GI50 was > 100 µM (inactive). As for `Cn1cc(-c2cnc(-c3cn(C)c4ccccc34)cn2)c2ccccc21`, in experiment [1], the GI50 is 2.57 µM (inactive). The same measure, in the same setting: with `C[C@@]12c3c4ccc(C=O)c3Oc3ccc(C=O)c(c31)Oc1c(C=O)ccc(c12)O4` the figure was > 100 µM (inactive); with `Cc1cc(NC[C@H](O)[C@H](O)[C@H](O)CO)c(Sc2cc(=O)[nH]c(=O)[nH]2)cc1C`, > 62.5 µM (inactive). Turning to `C=C1CN(C(=O)c2cc3cc(OC)c(OC)c(OC)c3[nH]2)c2cc([N+](=O)[O-])ccc21`, the GI50 in experiment [1] was 4.47 µM (inactive). In the case of `O=C(CNC(c1ccccc1)(c1ccccc1)c1ccccc1)NC1CCCCC1NC(=O)CNC(c1ccccc1)(c1ccccc1)c1ccccc1` (stereo not given), the GI50 in experiment [1] is 32.9 µM (inactive). `Nc1nc(Cl)cc(NCC2(O)CCCC2)n1`: the GI50 in experiment [1] was > 100 µM (inactive). Consider `O=C(CC(Cl)(Cl)C(Cl)(Cl)Cl)c1ccccc1`, for which the GI50 in experiment [1] is 3.76 µM (inactive). Regarding `C[C@@]1(OC(=O)c2cc([N+](=O)[O-])cc([N+](=O)[O-])c2)C[C@@H]2CCCC[C@@H]21`, in experiment [1], the GI50 was 41.8 µM (inactive). In the case of `O=C1CCCCC1CN1CCCC1` (stereo not given), the GI50 in experiment [2], in experiment [3], in experiment [4], in experiment [5], in experiment [6] and in experiment [7] was > 100 µM (inactive) in each case. With `O=C(NCc1ccncc1)C1COc2cc(-c3cc(=O)c4ccccc4o3)ccc2O1` (stereo not given), the GI50 in experiment [2], in experiment [3], in experiment [4], in experiment [5] and in experiment [7] was > 100 µM (inactive) in each case. With `CC(=O)O[C@H]1CCC2[C@@H]3CCC4C(=O)c5oncc5C[C@]4(C)C3CC[C@@]21C` (stereo not given in full), the GI50 in experiment [2] is > 100 µM (inactive); in experiment [3], > 100 µM (inactive); in experiment [4] it was > 100 µM (inactive); in experiment [5], > 100 µM (inactive); in experiment [6], > 100 µM (inactive); in experiment [7] it was 49 µM (inactive). Take `C#CCn1c2c(c3ccccc3c1=O)C(=O)c1ccccc1-2`: the GI50 in experiment [1] was 15.8 µM (inactive).

With `Cc1cc(NS(=O)(=O)c2ccc(Nc3c4ccccc4nc4c(C(=O)NC(CO)(CO)CO)cccc34)cc2)no1`, in experiment [1], the GI50 was 25.1 µM (inactive).

With `Cc1ccc(Sc2cc([N+](=O)[O-])cc(Sc3ccc(C)cc3)c2Sc2ccc(C)cc2)cc1`, the GI50 in experiment [2], in experiment [3], in experiment [4], in experiment [5], in experiment [6] and in experiment [7] was > 100 µM (inactive) in each case. On to `CC(=O)Nn1cnc(C(=N)C#N)c1N`, for which, in experiment [1], the GI50 is > 100 µM (inactive). On to `CCO/N=C(/CC)c1ccc(Br)s1`, for which the GI50 in experiment [1] is > 100 µM (inactive). For the molecule `COC(=O)C1=C(SC)SC2(C(=O)OC)C3C=C(C)C4C(N13)C42C(=O)OC` (stereo not given), the GI50 in experiment [2], in experiment [4], in experiment [5] and in experiment [6] was > 100 µM (inactive) each time.

Consider `CCOC(=O)C(=O)/C(=C/n1c(=S)[nH]c2ccc([N+](=O)[O-])cc21)C(=O)OCC`, for which the GI50 in experiment [1] was > 100 µM (inactive). Take `COc1ccc(C(OCC2OC(n3ccc(NC(=O)c4ccccc4)nc3=O)CC2OP2(=S)SCCS2)(c2ccccc2)c2ccc(OC)cc2)cc1` (stereo not given): in experiment [1], the GI50 was 24.1 µM (inactive). For the molecule `COc1cc(Cc2nccc3cc(OC)c(OC)cc23)c(/N=N/N(C)C)cc1OC`, in experiment [1], the GI50 was 18.4 µM (inactive). Take `S=C1CC(c2ccccc2)Sc2cc(Cl)ccc2N1` (stereo not given): in experiment [1], the GI50 was 8.91 µM (inactive). Consider `CCOc1nnnc2[nH]cnc12`, for which, in experiment [1], the GI50 was > 100 µM (inactive). Consider `CC[C@]1(c2ccc3c(c2)OCO3)C=[N+]([O-])O[C@H](OC2CCCC2(c2ccccc2)c2ccccc2)[C@@H]1OC(C)=O` (stereo not given in full), for which, in experiment [1], the GI50 was 3.16 µM (inactive). The same measure, in the same setting: in the case of `CC(C)(C)c1cc(/C=C(\C#N)C(=O)NCCO)cc(C(C)(C)C)c1O` it was 37.8 µM (inactive). As to `O=C1c2ccccc2-c2c1c(-c1ccc([N+](=O)[O-])cc1)nc1ccc3ccccc3c21`, the GI50 in experiment [1] is > 100 µM (inactive). Turning to `COc1ccc(/C(=N/OCCCC(=O)O)c2cccs2)cc1`, the GI50 in experiment [1] is > 100 µM (inactive). As for `Cc1coc2c1CC1OC1(C)CCC1OC1(C)C2` (stereo not given), in experiment [1], the GI50 was > 100 µM (inactive). For `O=C(CCCN1CCc2[nH]c3cc(F)ccc3c2C1)c1ccc(F)cc1`, the GI50 in experiment [1] was 10.5 µM (inactive). On to `C[C@@]12C[C@@H](c3ccccc3O1)N1Cc3ccccc3CSC1=N2`, for which, in experiment [1], the GI50 was > 100 µM (inactive). Take `CCS(=O)(=O)CCn1cnc2c1c(=O)n(C)c(=O)n2C`: the GI50 in experiment [1] was > 100 µM (inactive).

For `Nc1ccc(C(=O)NN2C(=O)C(Cl)C2c2ccccc2)cc1` (stereo not given), the GI50 in experiment [2], in experiment [3], in experiment [4], in experiment [5], in experiment [6] and in experiment [7] was > 100 µM (inactive) in each case. Consider `CC(CC(=O)O)C(C(=O)O)C(=O)O` (stereo not given), for which the GI50 in experiment [1] is > 100 µM (inactive). As for `C/C=C1/CN2CCC34C(=C(C(=O)OC)C1CC23)Nc1ccc(O)cc14` (stereo not given), in experiment [1], the GI50 is 34.3 µM (inactive). Consider `ClC1=C(Cl)C(Cl)(Cl)c2c3c(c4c(c21)C(Cl)(Cl)C(Cl)=C4Cl)C(Cl)(Cl)C(Cl)=C3Cl`, for which the GI50 in experiment [2], in experiment [3], in experiment [4] and in experiment [6] was > 100 µM (inactive) each time. `CSc1c(C#N)c(N)n2c1C(=O)N(c1ccccc1)C2=S`: the GI50 in experiment [1] was 28 µM (inactive).

In the case of `O=C1C(Cl)C(c2cccc(Br)c2)N1c1c(O)c(Cl)cc(Br)c1Cl` (stereo not given), the GI50 in experiment [1] is 9.46 µM (inactive).

With `COC(=O)C(C)(Cc1ccc2c(c1)nnn2C(C)=O)NC(C)=O` (stereo not given), in experiment [1], the GI50 is > 100 µM (inactive). The same measure, in the same setting: in the case of `CC(C)(C)c1ccc(O)c(C(O)c2ccccn2)c1` (stereo not given) it was 91.2 µM (inactive). Same read-out and setting: in the case of `CCOC(=O)C(Cc1ccc(N(CCCl)CCCl)cc1)NC(=O)C(Cc1ccccc1)NC=O` (stereo not given) it was 0.388 µM (active). Take `O=S1(=O)c2ccccc2N(c2ccccc2)c2nnnn21`: the GI50 in experiment [1] was 56.6 µM (inactive). Turning to `Cc1sc2ncnc(NCCc3ccccc3)c2c1C`, in experiment [1], the GI50 is 20.7 µM (inactive). As to `C/C(C=O)=C1\C(O)C[C@]1(C)C1CC(C)(C)CC1O` (stereo not given in full), the GI50 in experiment [2] was > 100 µM (inactive); in experiment [4] it was 57.1 µM (inactive); in experiment [5], > 100 µM (inactive); in experiment [6], 39.1 µM (inactive); in experiment [7], > 100 µM (inactive). Take `CN(C)Cc1cc(C(=O)/C=C/c2ccccc2Cl)cc(CN(C)C)c1O`: the GI50 in experiment [1] was 18.3 µM (inactive). With `Cc1cc(O)no1` [HYMEXAZOL], the GI50 in experiment [1] was > 100 µM (inactive).
